Test results from patent US20110165115A1, “SYNERGISTIC ATTRACTANTS FOR PESTIFEROUS SOCIAL INSECTS” (STERLING INTERNATIONAL INC., priority 2010, published 2011).

Tests used:
[1] = system: V. pensylvanica; test: Field trapping Experiment 1, Rescue W•H•Y traps; format: in vivo, Vespula pensylvanica; conditions: Exp 1; HIPV added to WHY attractant in the top chamber, or WHY alone
Method: (§1) Three field trapping experiments were carried out during late July to early August 2009, in residential and woody areas around Spokane, Wash., USA, using the newly marketed Rescue® W•H•Y traps (www.rescue.com). As used herein, the W•H•Y trap is a trap in accordance with the description of United States Patent Application Publication No. 2009/0151228. The W•H•Y trap has a top chamber and a bottom chamber. The top chamber is baited with two attractants—one of which is a solid contained in a vial (2-methyl-1-butanol) and the other a liquid mixed with water (acetic acid), herein referred to as the W•H•Y top attractant. The bottom chamber is baited with a liquid attractant (heptyl butyrate) poured onto a cotton pad, herein referred to as the W•H•Y bottom attractant. Separation of the top and bottom attractants (otherwise antagonistic to each other when released from the same chamber) in two chambers was a design feature of this trap and creates two focal attraction sources from one trap for different species of wasps, hornets, and yellowjackets. Traps were hung 1.5-2.0 m above the ground on either the fence or tree branches ca. 5 m apart within each trap line. For each trapping experiment, six sets of traps were deployed with their initial trap positions within each set being randomized. To minimize positional effects and obtain more replications, wasp collections and trap re-randomization were carried out when ≧10-20 wasps were caught in the best trap. Each replicate lasted several days depending on wasp flight activity. Captured wasps were removed from the traps and kept in the zip-bags before taking back to the laboratory for recording of the species, gender status, and catch.
(§2) Experiment 3 (Aug. 5-13, 2009) was conducted to determine the potential behavioral activity of different doses of (E)-4,8-dimethyl-1,3,7-nonatriene alone. The individual (or different doses) HIPVs were loaded into either polyethylene bags or centrifuge tube type of dispensers, and released from the top of the W•H•Y trap chamber. W•H•Y trap attractants (both top and bottom or top only) alone and water (top chamber only) were included in the test as positive and blank controls, respectively. The dispenser types, loading and release rates of the tested semiochemicals are described in Tables 1, 2 and 3.
(§3) Trap catch data were converted to proportion (P) of total captured wasps within each replicate. Data were then transformed by arcsin√P to meet the assumptions of normality and homogeneity of variances for ANOVA. Means were compared by ANOVA followed by the Ryan-Einot-Gabriel-Welsh (REGW) multiple Q test (SPSS 16.0 for Windows) at α=0.05.

[2] = system: V. vulgaris; test: Field trapping Experiment 1, Rescue W•H•Y traps; format: in vivo, Vespula vulgaris; conditions: Exp 1; HIPV added to WHY attractant in the top chamber, or WHY alone
Method: as §1, §2, §3

[3] = system: D. maculata; test: Field trapping Experiment 1, Rescue W•H•Y traps; format: in vivo, Dolichovespula maculata; conditions: Exp 1; HIPV added to WHY attractant in the top chamber, or WHY alone
Method: as §1
Experiment 1 (Jul. 22-30, 2009) tested ten synthetic HIPV candidates [(E)-2-hexenal, (Z)-3-hexen-1-ol, (Z)-3-hexenyl acetate, cis-ocimene, linalool, methyl salicylate, geranyl acetate, trans-β-caryophyllene, trans-β-farnesene and (E)-4,8-dimethyl-1,3,7-nonatriene], including several paper wasp EAD-active compounds (see FIG. 2 for details), to determine their potential synergistic effect on the Rescue® W•H•Y trap attractants to paper wasps, yellowjackets, and hornets. Experiment 2 (Aug. 5-13, 2009) tested behavioral responses of the paper wasps and yellowjackets to the Rescue® W•H•Y trap attractants (top attractants only) and its combination with (E)-4,8-dimethyl-1,3,7-nonatriene, one of the EAD-active and behaviorally significant HIPVs, in a dose-response fashion. Experiment 3 (Aug. 5-13, 2009) was conducted to determine the potential behavioral activity of different doses of (E)-4,8-dimethyl-1,3,7-nonatriene alone. The individual (or different doses) HIPVs were loaded into either polyethylene bags or centrifuge tube type of dispensers, and released from the top of the W•H•Y trap chamber. W•H•Y trap attractants (both top and bottom or top only) alone and water (top chamber only) were included in the test as positive and blank controls, respectively. The dispenser types, loading and release rates of the tested semiochemicals are described in Tables 1, 2 and 3.
as §3

[4] = system: V. acadica; test: Field trapping Experiment 1, Rescue W•H•Y traps; format: in vivo, Vespula acadica; conditions: Exp 1; HIPV added to WHY attractant in the top chamber, or WHY alone
Method: as §1, §2, §3

[5] = system: P. dominulus; test: Field trapping Experiment 1, Rescue W•H•Y traps; format: in vivo, Polistes dominulus; conditions: Exp 1; HIPV added to WHY attractant in the top chamber, or WHY alone
Method: as §1, §2, §3

[6] = system: P. aurifer; test: Field trapping Experiment 1, Rescue W•H•Y traps; format: in vivo, Polistes aurifer; conditions: Exp 1; HIPV added to WHY attractant in the top chamber, or WHY alone
Method: as §1, §2, §3

[7] = system: P. dominulus workers antennae; test: GC-EAD of synthetic mixture of known HIPVs; set-up: species or system Polistes dominulus; conditions: 100 ng/μl each in hexane
Method: (§4) Aeration samples of the cherry branches (damaged or undamaged/slightly damaged) were injected (3 μl) splitless into a Varian CP-3800 GC equipped with a polar column (HP-INNOWax; 30 m×0.53 mm×1.0 μm film thickness; Agilent Technologies, Wilmington, Del., USA) and a 1:1 effluent splitter that allowed simultaneous flame ionization detection (FID) and electroantennographic detection (EAD) of the European paper wasp (Polistes dominulus) worker antennae to the separated volatile compounds. Helium was used as the carrier gas, and the injector and detector temperatures were 250° C. and 300° C., respectively. Column temperature was 50° C. for 1 min, rising to 240° C. at 10° C./min, and then held for 10 min. The outlet for the EAD was held in a humidified air stream flowing at 0.5 m/sec over the antennal preparation. EAD recordings were made using silver wire-glass capillary electrodes filled with Beadle-Ephrussi Ringer on freshly cut antennae. The antennal signals were stored and analyzed on a PC equipped with a serial IDAC interface box and the program EAD ver. 2.5 (Syntech, Hilversum, The Netherlands). In addition, GC-EAD responses to a synthetic mixture (100 ng/μl each) containing nine known HIPVs including cis-3-hexen-1-ol, cis-3-hexenyl acetate, trans-β-ocimene, (E)-4,8-dimethyl-1,3,7-nonatriene, linalool, methyl salicylate, geranyl acetate, trans-β-caryophyllene and trans-β-farnesene were tested on the P. dominulus workers. (See FIG. 2.) The same chemicals were also tested on beneficial insect antennae from Chrysopa oculata, Myrmeleon crudelis, Podisus maculiventris, and Hippodarnia convergens. (See FIG. 6.) Antennally active peaks in the aeration samples were identified by GC-MS on an HP 6890 GC series coupled with an HP 5973 Mass Selective Detector using the same type of GC column and conditions as described above. Compounds were identified by comparison of retention times with those of authentic standards and with mass spectra of standards.

[8] = system: Chrysopa oculata antennae; test: GC-EAD of synthetic HIPVs on beneficial insect antennae; conditions: FIG. 6
Method: as §4

[9] = system: Hippodarnia convergens antennae; test: as above; conditions: FIG. 6
Method: as §4

[10] = system: Myrmeleon crudelis antennae; test: as above; conditions: FIG. 6
Method: as §4

[11] = system: Podisus maculiventris antennae; test: as above; conditions: FIG. 6
Method: as §4

[12] = system: V. atropilosa; format: in vivo, Vespula atropilosa; conditions: Exp 1; HIPV added to WHY attractant in the top chamber, or WHY alone

C=C/C=C(\C)CCC=C(C)C [(E)-4,8-dimethyl-1,3,7-nonatriene]
Total Yellowjacket Catches V. pensylvanica [1]: 463
Total Yellowjacket Catches V. vulgaris [2]: 52
Total Yellowjacket Catches D. maculata [3]: 12
Total Yellowjacket Catches V. acadica [4]: 1
Total Paper Wasps P. dominulus [5]: 152
Total Paper Wasps P. aurifer [6]: 12
EAD response of worker antennae [7]: responded consistently
EAD-response [8]: strong EAD-responses
EAD-response [9]: strong EAD-responses
EAD-response [10]: strong EAD-responses
EAD-response [11]: strong EAD-responses
Total Yellowjacket Catches V. atropilosa [12]: 3

COC(=O)c1ccccc1O [Methyl Salicylate, methyl salicylate]
Total Yellowjacket Catches V. pensylvanica [1]: 226
Total Yellowjacket Catches V. vulgaris [2]: 23
Total Yellowjacket Catches D. maculata [3]: 1
Total Yellowjacket Catches V. acadica [4]: 0
Total Paper Wasps P. dominulus [5]: 33
Total Paper Wasps P. aurifer [6]: 6
EAD response of worker antennae [7]: responded consistently
EAD-response [8]: strong EAD-responses
EAD-response [9]: strong EAD-responses
EAD-response [10]: strong EAD-responses
EAD-response [11]: strong EAD-responses
Total Yellowjacket Catches V. atropilosa [12]: 4

CC/C=C\CCO [Z-3-Hexanol, (Z)-3-hexen-1-ol]
Total Yellowjacket Catches V. pensylvanica [1]: 288
Total Yellowjacket Catches V. vulgaris [2]: 33
Total Yellowjacket Catches D. maculata [3]: 5
Total Yellowjacket Catches V. acadica [4]: 0
Total Paper Wasps P. dominulus [5]: 25
Total Paper Wasps P. aurifer [6]: 4
EAD response of worker antennae [7]: responded consistently
Total Yellowjacket Catches V. atropilosa [12]: 0

CC/C=C\CCOC(C)=O [Z-3-Hexenyl Acetate, (Z)-3-hexenyl acetate]
Total Yellowjacket Catches V. pensylvanica [1]: 311
Total Yellowjacket Catches V. vulgaris [2]: 34
Total Yellowjacket Catches D. maculata [3]: 1
Total Yellowjacket Catches V. acadica [4]: 1
Total Paper Wasps P. dominulus [5]: 40
Total Paper Wasps P. aurifer [6]: 9
EAD response of worker antennae [7]: responded consistently
EAD-response [8]: strong EAD-responses
EAD-response [9]: strong EAD-responses
EAD-response [10]: strong EAD-responses
EAD-response [11]: strong EAD-responses
Total Yellowjacket Catches V. atropilosa [12]: 0
